Consider 2 compounds from patent publication US5066794A, “Process for preparing a disaccharide derivative” (Daiichi Pharmaceutical Co., Ltd., priority 1990, dated 1991).

Data set [1] concerns murine lymphocytes (splenocytes). Put plainly: Mitogenicity: stimulation of [^3 H]-labeled thymidine uptake into isolated murine lymphocytes (splenocytes). Conditions: Mus musculus, Splenocyte, 48 hours, 37° C., read-out: Stimulation Index ± S.E. of mitogenicity ([^3 H]-labeled thymidine uptake; T/C). Format: cell-based, BALB/c nu/nu mice. On the procedure:
Spleen of BALB/c nu/nu mice (male; 8-week old) was minced, and lymphocytes collected from the minced spleen were incubated with graded doses of test compounds in RPMI 1640 medium without fetal bovine serum at 37° C. at a concentration of 1×10^5 to 1×10^6 lymphocytes per ml for 48 hours. Twenty-four hours before the completion of the incubation, [^3 H]-labeled thymidine (manufactured by New England Nuclear) was added to the culture. After the completion of the incubation, cells were collected on glass microfiber paper and dried, and the radioactivity of [^3 H]-labeled thymidine incorporated into the cells was measured. The ratio of thymidine uptake in the test culture to which the test compound had been added to that in the respective control culture was determined as a stimulation index. The higher the stimulation index, the higher the mitogenicity.

Data set [2] concerns Japanese domestic white rabbits. Description: Test II: pyrogenicity test (body temperature increase in rabbits). As to conditions: 0.1 μg/kg intravenous; febrile = temperature increase of 0.6° C. or more.
Method: The pyrogenicity of the compounds of this invention was determined in terms of body temperature increase in rabbits after intravenous injection of the test compound in accordance with the test method of pyrogenicity defined in Japanese Pharmacopoeia. That is, the rectal temperatures of Japanese domestic white rabbits (body weight: 2 to 2.5 kg) were measured 3 times at one-hour intervals. When the temperature in the second and third measurements were substantially equal, the third temperature was taken as a reference temperature. Within 15 minutes after the third measurement, the test compound dissolved in pyrogen-free distilled water was injected in the ear vein, and the rectal temperature was measured 3 times at one-hour intervals after injection. A difference between the reference temperature and the maximum temperature was taken as an increase of body temperature, and the pyrogenicity of the test compound was expressed by the number of febrile animals showing a temperature increase of 0.6° C. or more.
For the next data set, the system named is Japanese white rabbits. Put plainly: Test I: local Shwartzman reaction induction activity. It counts as in vivo. Conditions: 100 μg S. minnesota LPS i.v. 20 hours later. On the procedure:
The local Shwartzman reaction test (Test I) is examined to determine the phenomenon of necrosis, at the site where a test compound was injected, induced by intravenous injection of lipopolysaccharide (hereinafter referred to as LPS) after 20 hours from intracutaneous injection of the test compound to test animals, preferably in rabbits.
The test on Shwartzman reaction specific to endotoxin was carried out as follows using Japanese white rabbits (female, weighing around 3 kg). That is, Japanese domestic white rabbits were intracutaneously injected with the test compound. Twenty hours later, 100 μg of LPS extracted from Salmonella minnesota R595, Re-mutant was intravenously injected to each rabbit. The Shwartzman reaction-induction activity was expressed in terms of number of animals that suffered from hemorrhagic necrosis at the site that had been prepared by intracutaneous injection of the test compound.

Take `CCCCCCCCCCCCCC(=O)O[C@H](CCCCCCCCCCC)CC(=O)O[C@@H]1[C@@H](NC(=O)C[C@@H](CCCCCCCCCCC)OC(=O)CCCCCCCCCCC)[C@H](OC[C@H]2O[C@H](OP(=O)(O)O)[C@H](NC(=O)C[C@H](O)CCCCCCCCCCC)[C@@H](OC(=O)C[C@H](O)CCCCCCCCCCC)[C@@H]2O)O[C@H](CO)[C@H]1OP(=O)(O)O` [Compound of Present Invention, 6-O-{2-Deoxy-2-[(R)-3-dodecanoyloxytetradecanoylamino]-3-O-[(R)-3-tetradecanoyloxytetradecanoyl]-4-O-phosphono-β-D-glucopyranosyl}-2-deoxy-2-[(R)-3-hydroxytetradecanoylamino]-3-O-[(R)-3-hydroxytetradecanoyl]-1-O-phosphono-α-D-glucopyranose]: the fold induction at 0.01 µg/mL in data set [1] (0.01 μg/ml) is 4.06 ± 0.35. The fold induction at 0.1 µg/mL in data set [1] (0.1 μg/ml) was 9.05 ± 0.7. Besides, the fold induction at 1 µg/mL in data set [1] (1 μg/ml) amounted to 11.8 ± 0.13. For the same compound, in data set [2], the “Pyrogenicity: Number of Febrile Animals/Number of Tested Animals” value is 3/4. The “Shwartzman reaction-induction activity: Number of Necrosed Animals/Number of Tested Animals” value in the data set on Japanese white rabbits (20 μg/site intracutaneous) is given as 2/3.
Regarding `CCCCCCCCCCC[C@@H](O)CC(=O)N[C@H]1[C@H](OC[C@H]2O[C@H](OP(=O)(O)O)[C@H](NC(=O)C[C@H](O)CCCCCCCCCCC)[C@@H](OC(=O)C[C@H](O)CCCCCCCCCCC)[C@@H]2O)O[C@H](CO)[C@@H](OP(=O)(O)O)[C@@H]1OC(=O)C[C@H](O)CCCCCCCCCCC` [Control Compound 1, 6-O-{2-Deoxy-2-[(R)-3-hydroxytetradecanoylamino]-3-O-[(R)-3-hydroxytetradecanoyl]-4-O-phosphono-β -D-glucopyranosyl}-2-deoxy-2-[(R)-3-hydroxytetradecanoylamino]-3-O-[(R)-3-hydroxytetradecanoyl]-1-O-phosphono-α-D-glucopyranose, reference compound], the “Pyrogenicity: Number of Febrile Animals/Number of Tested Animals” value in data set [2] was 0/3. In addition, the “Shwartzman reaction-induction activity: Number of Necrosed Animals/Number of Tested Animals” value with Japanese white rabbits (80 μg/site intracutaneous) is 0/3.
